# Reference: patent US20250375417A1, “OREXIN RECEPTOR 2 (OX2R) AGONIST FOR USE IN NARCOLEPSY TYPE 1 (NT1)” (TAKEDA PHARMACEUTICAL COMPANY LIMITED, priority 2024, published 2025)
# Columns and labels:
# participants with NT1 [1] = assay: Weekly cataplexy rate (WCR), Phase 2 NT1 trial; assay type: in vivo, human
# Method: In some aspects of the methods described herein, the subject experiences a lower weekly cataplexy rate (WCR) after a treatment period compared to an untreated subject.
# Cataplexy events are recorded for 14 consecutive days, starting after completion of washout of any anti-cataplexy medications and completed before Day-2 are considered for WCR study entry criterion. The total number of events/week (WCR) is calculated based on the number of cataplexy episodes averaged over 2 weeks, with at least 11 out of 14 days required to calculate the WCR.
# Randomization was stratified by region. Starting on the morning of Day 1, the study drug was administered at approximately the same time each day for 8 or 12 weeks. If the participant wished to enroll in the long-term extension (LTE) study described in Example 3 but the LTE study had not started at the participant's site when the participant completed the Week 8 visit of the current study, the participant was allowed to continue in the current study for an additional 4 weeks.
# The following doses were studied: • Compound A Dose Regimen 1:0.5 mg twice daily approximately 3 hours apart. • Compound A Dose Regimen 2:2 mg twice daily approximately 3 hours apart. • Compound A Dose Regimen 3:2 mg followed by 5 mg approximately 3 hours apart. • Compound A Dose Regimen 4:7 mg once daily (QD). • Other products required for the study: Matching placebo. […]
# participants with NT1 [2] = assay: Psychomotor vigilance test (PVT), sustained attention, Phase 2 NT1 trial; assay type: in vivo, human
# Description: The psychomotor vigilance test (PVT) is validated as a clinical outcome assessment of the ability to sustain attention. The PVT is a simple reaction performance task that aims to measure sustained attention with no learning effects over repeated administration. Differences between healthy controls and patients with narcolepsy have been found on PVT performance for reaction time, accuracy, and other measures. The PVT is sensitive to the effects of total sleep loss, partial sleep restriction, naps, and circadian variation in the healthy population. The duration of test is 10 minutes.
# Outcomes of this study included a performance-based test of attention, the Psychomotor Vigilance Task (PVT; administered 1 and 7 hours post first dose, assessed at baseline and weeks 4 and 8) and two assessments of EDS: the Maintenance of Wakefulness Test (MWT; administered 2, 4, 6, and 8 hours post first dose, assessed over 4 sessions) and the Epworth Sleepiness Scale (ESS; using a 7-day recall period, assessed at baseline and weeks 2, 4, and 8). At baseline, associations between attention (as measured by number of PVT lapses), and objective (MWT) and subjective (ESS) measures of EDS were computed. For PVT and MWT, covariation in change throughout the day at end of study was investigated. The effect of different Compound A doses on wakefulness and attention were compared for each outcome. […]
# patients with NT1 = tested on: patients with NT1; set-up: species or system human; conditions: in vivo
# participants with NT1 [3] = assay: Narcolepsy Severity Scale for Clinical Trials (NSS-CT), Phase 2 NT1 trial; assay type: in vivo, human
# Description: Severity of NT1 symptoms can be assessed through the use of the NSS-CT. The NSS-CT is a 15-item self-administered questionnaire (total score: 0-57) that assesses the severity and consequences of the 5 major narcolepsy symptoms such as daytime sleepiness, cataplexy, hallucinations, sleep paralysis, and disrupted nighttime sleep (DNS). […] Further, the symptom number was associated with diagnosis delay, age at onset, and ESS and Beck Depression Inventory scores (Dauvilliers et al. 2020).
# Methods: An analysis of exploratory data from the study was conducted to explore disease severity in individuals with ICSD-3 confirmed NT1. Eligible participants were age 18-70 years (Japan: 16-70), with an Epworth Sleepiness Scale (ESS) score>12, and >4 partial/complete episodes of cataplexy/week. Exploratory endpoints included change from baseline to Week 8 in the narcolepsy Severity Scale for clinical trials (NSS-CT), and Clinical Global Impression (CGI) and Patient Global Impression (PGI) at Week 8. The NSS-CT, a validated, self-administered 15-item scale, evaluates the severity, frequency, and impact of five main narcolepsy symptoms (higher scores indicate more severe symptoms).
# participants with NT1 [4] = assay: Efficacy (SOL-MWT, ESS, WCR), LTE study interim analysis, NT1 participants; assay type: in vivo, human; conditions: all Compound A doses, up to 6 months (FIG. 31)
# Method: An nPSG and MWT were conducted on Day 181 and 182, respectively. Cognitive testing were conducted at Week 26 (6 months). ESS and NSS-CT were collected monthly starting at Week 4 and then approximately every 3 months after Week 12. There were additional ESS measurements at Week 2 and in the first week after drug discontinuation. PGI-I and CGI-I were collected approximately every 3 months starting at Week 12. Other patient-reported outcome measures were administered approximately every 6 months up until Year 1.
# Participants with NT1 also completed the Cataplexy e-diary daily over 2-week periods to capture the weekly cataplexy rate before the next visit in-clinic. The Cataplexy e-diary was completed at approximately 3-month intervals during Year 1 and at 6-month intervals during Year 2.
# Participants completing either Example 1 or Example 2 with ≤3 months between parent study-end and LTE screening could enroll. Primary endpoint is the occurrence of treatment-emergent adverse events (TEAEs); secondary endpoints are change from baseline (parent study) in sleep onset latency on the Maintenance of Wakefulness Test (SOL-MWT), Epworth Sleepiness Scale (ESS) score, and weekly cataplexy rate (WCR). Participants with NT1 receive oral Compound A 0.5 mg twice 3 hours apart, 2 mg twice 3 hours apart, 2 mg then 5 mg 3 hours apart, or 7 mg once daily. […]
smiles,measurement,setting,value
"CCS(=O)(=O)N[C@@H]1[C@H](Cc2cccc(-c3cc(F)cc(F)c3)c2F)N(C(=O)C(C)(C)O)CC1(F)F [Compound A, N-{(2S,3R)-4,4-difluoro-1-(2-hydroxy-2-methylpropanoyl)-2-[(2,3′,5′-trifluoro[1,1′-biphenyl]-3-yl)methyl]pyrrolidin-3-yl}ethanesulfonamide]",Change from baseline to Week 8 in WCR versus placebo,"participants with NT1 [1]; 2 mg/2 mg and 2 mg/5 mg dose groups, adjusted for multiple comparisons",statistically significant changes
same,Median WCR versus placebo,participants with NT1 [1]; twice daily dosing (FIG. 5),significantly reduced cataplexy events
same,"PVT lapses, least squares mean differences from placebo","participants with NT1 [2]; all Compound A doses, 1 hour and 7 hours post-first dose (p<0.05)",significant
same,Attention (PVT lapses),"participants with NT1 [2]; week 8, all doses (all p<0.05)",improved attention across all doses
same,Improvement on CPAL total errors,patients with NT1,statistically significant across all doses
same,Improvement on ONB reaction time,patients with NT1,statistically significant across all doses
same,Improvement on iDSST-s number correct,patients with NT1,statistically significant across all doses
same,"NSS-CT total score, LS mean change from baseline to Week 8",participants with NT1 [3]; 0.5 mg/0.5 mg,−18.2
same,"NSS-CT total score, LS mean change from baseline to Week 8",participants with NT1 [3]; 2 mg/2 mg,−21.0
same,"NSS-CT total score, LS mean change from baseline to Week 8",participants with NT1 [3]; 2 mg/5 mg,−21.1
same,"NSS-CT total score, LS mean change from baseline to Week 8",participants with NT1 [3]; 7 mg,−17.2
same,"Efficacy on SOL-MWT, ESS and WCR over time",participants with NT1 [4],maintenance of efficacy
